Experimental data reported in patent EP0273199A2, “Uses of 3,4-diphenyl piperidine derivatives or medicines, 3,4-diphenyl piperidine derivatives, and process for their preparation” (LABORATOIRES HOECHST S.A., priority 1986, dated 1988).
Like-named read-outs stand apart in the source and are kept apart here.

Key:
[1] = tested on: L-5-Hydroxytryptophan; assay: Potentiation of L-5-hydroxytryptophan effects (head twitches, tremor); format: in vivo, Maus; settings: mouse, 4 mg/kg i.p., 30 min before L-5 HTP 4 mg/kg i.p.
Method: L-5 HTP induziert an der Maus ruckartige Bewegungen des Kopfes (Kopfzuckungen). Die zu untersuchenden Substanzen werden den Tieren (10 Mäuse pro Dosis) intraperitoneal 30 Minuten vor dem L-5 HTP (4 mg/kg intraperitoneal) verabreicht. Die ruckartigen Kopfbewegungen und der Tremor werden 1 Minutre lang alle 10 Minuten im Verlauf einer Stunde bewertet. Desimipramin und Indalpin sind die Kontrol-(Vergleichs-)verbindungen. Ein antidepressiver Effekt zeigt sich durch eine Zunahme der ruckartigen Kopfbewegungen und des Tremors.

[2] = tested on: Toxizität des Yohimbins; assay: Potentiation of yohimbine toxicity; format: in vivo, Maus; settings: ip
Method: Wirkung auf die Toxizität des Yohimbins
Zur Zeit 0 erhalten die Mäuse entweder destilliertes Wasser oder verschiedene zu untersuchende Verbindungen i.p. 30 Minuten danach verabreicht man ihnen subkutan eine infratoxische Dosis von 25 mg/kg Yohimbinchlorhydrat.
Die Mortalität wird jede Stunde über einen Zeitraum von 4 Stunden verfolgt und dann nach 24 Stunden notiert.
Die eine antidepressive Aktivität besitzenden Produkte verursachen eine Potenzierung der Toxizität des Yohimbins.

[3] = tested on: Apomorphin 16 mg/kg; assay: Antiapomorphine activity (apomorphine 16 mg/kg s.c., hypothermia); format: in vivo, Maus; settings: ip
Method: Zur Zeit 0 nach Ausgleich der Reaktaltemperaturen werden die Mäuse (6 pro Gruppe) in deren Beobachtung gestattende Einzelkäfige (11 x 3,5 x 4 cm) eingeetzt. 30 Minuten nach i.p. bzw. p.o. Verabreichung der Testsubstanz erhalten sie Apomorphin subkutan in einer Dosis von 16 mg/kg. Die Rektaltemperatur wird 30 Minuten nach dem Apomorphin gemessen. Die Kontrolltiere erhalten destilliertes Wasser statt der zu untersuchenden Verbindungen. Die bei diesen Kontrolltieren, die 16 mg/kg Apomorphin erhalten haben, beobachtete Hypothermie liegt im Durchschnitt bei 33°C. Für jede Verbindungsdosis berechnet man die prozentuale Hemmung der Hypothermie.

[4] = tested on: Motoraktivität; assay: Actimetry (motor activity, photocell actimeter); format: in vivo, Maus; settings: for Motilität: i.p., direction of change; for minimal effective dose: ip, read-out: Erste wirksame Dosis Motilität
Text: Die Motoraktivität wird mittels Photozellenaktimetern bestimmt (Boissier und Simon, Arch. Int. Pharmacodyn. 1965, 158, 212-221).
Die Mäuse (10 oder ein Vielfaches von 10 pro Gruppe) werden unmittelbar nach i.p. Verabreichung der zu untersuchenden Verbindungen in das Aktimeter eingesetzt. Die Motoraktivität wird danach bis zur 60. Minute gemessen. De Zähler werden nach 30 Minuten abgelesen und dann auf 0 zurückgestellt und im Verlauf von 30 Minuten alle 10 Minuten abgelesen.
Die Beweglichkeit der mit den verschiedenen Verbindungen behandelten Tiere wird mit derjenigen einer destilliertes Wasser erhaltenden Kontrollgruppe verglichen.
Die eine psychostimulierende Aktivität besitzenden Produkte verursachen eine Zunahme der Beweglichkeit.

[5] = tested on: Maus; assay: Behavioural despair test (Porsolt forced swimming); format: in vivo; settings: mouse, 8 mg/kg i.p.
Text: Test auf verzweifeltes Verhalten, wie von Porsolt u.a. (Arch. Int, Pharmacodyn. Ther. 229, 327 - 336, 1977) beschrieben.
Die Verbindungen werden intraperetoneal 30 Minuten vor dem Test verabreicht, und die Tiere werden vor dem erzwungenen Schwimmtest isoliert gehalten. Man bewertet die Dauer der Unbeweglichkeitsperioden in Sekunden ausgedrückt, die von der 2. bis zur 6. Minute nach dem Einsetzen des Tieres in Wasser gezählt werden.

[6] = tested on: durch Reserpin induzierten Hypothermie; assay: Antireserpine activity (reserpine-induced hypothermia); format: in vivo, Maus; settings: ip
Method: Zur Zeit 0 erhalten die Mäuse intraperitoneal Reserpin (2,5 mg/kg).
4 Stunden danach, wenn die Hypothermie genügend stark erscheint (30 bis 33°C), verabreicht man die verschiedenen zu untersuchenden Verbindungen i.p. oder p.o. Alle 30 Minuten über einen Zeitraum von 2 Stunden mißt man die Rektaltemperatur mit einer auf konstante Tiefe eingeführten, ein Thermoelement tragenden Sonde. Die Rektaltemperatur der mit verschiedenen erfindungsgemäßen Verbindungen behandelten Tiere wird mit der Temperatur einer Kontrollgruppe verglichen, die destilliertes Wasser auf die gleiche Weise wie die untersuchten Verbindungen erhält.
Die Akinesie (fehlende Bewegungen) und Ptose (Öffnungsgrad des Augenlids von 0 bis 4 nach Rubin u.a 1957) werden ebenfalls alle 30 Minuten über einen Zeitraum von 2 Stunden bewertet.
Die eine antidepressive Aktivität besitzenden Produkte wirken der durch Reserpin induzierten Hypothermie entgegen. Für jede Dosis der verabreichten Verbindung berechnet man die prozentuale Hemmung der Hypothermie.

[7] = tested on: Maus; assay: Tail suspension test; format: in vivo; settings: ip, read-out: Erste wirksame Dosis T.S.T. Maus
Text: Schwanzaufhängungstest an der Maus wie von Stéru u.a. beschrieben (Psychopharmacology 85, 367-370, 1985).
Die Substanzen werden intraperitoneal 30 Minuten vor dem Test verabreicht und die Tiese isoliert (10 Mäuse pro Dosis).
Man bewertet die Dauer der Unbeweglichkeit, ausgedrückt in Sekunden über die 6 Minuten des Tests. Man untersucht auf eine Verkürzung dieser Unbeweglichkeitszeit.

[8] = tested on: Apomorphin 1 mg.kg^-1 s.c.; assay: Apomorphine 1 mg/kg s.c. antagonism (no method given); format: in vivo; settings: ip, Tabelle Ib; read-out: Erste wirksame Dosis Apomorphin 1 mg.kg^-1 s.c.
[9] = tested on: Maus; assay: Hot plate test (licking and jumping), analgesia; format: in vivo; settings: mouse, reaction time, 8 mg/kg i.p., plate 56,6°C
Method: Heizplattentest: Lecken und Springen, wie von Jacob und Blozovski beschrieben (Arch. Int. Pharmacodyn. 133, 296-209, 1961).
Die in Sekunden ausgedrückten Reaktionszeiten auf einer Heizplatte werden unter Berücksichtigung des Leckens der Vorderpfoten und Springen des Tieres als Kriterien bewertet. Die beiden Reaktionen werden am selben, anfänglich untrainierten Tier mit einer maximalen Ansprechzeit (Obergrenze) von 240 Sekunden beobachtet. Die Temperatur der Platte wird auf 56,6°C gehalten.
Morphin als positive Kontrolle wird subkutan und die übrigen Substanzen (mg/kg) werden intraperitoneal 30 Minuten vor dem Test verabreicht. Positives Ansprechen zeigt sich in einer Zunahme der Reaktionszeit.
Wird der schadensverhütenden Wirkung eine Substanz durch Naloxon entegengewirkt, so kann man schließen, daß die Substanz tatsächlich eine analgetische Wirkung besitzt.

[10] = tested on: durch Oxotremorin induzierten Hypothermie; assay: Antioxotremorine activity (oxotremorine-induced hypothermia); format: in vivo, Maus; settings: ip, read-out: Erste wirksame Dosis Oxotremorin
Method: Nach Ausgleich der Rektaltemperaturen erhalten Mäuse (6 pro Gruppe) entweder destillietes Wasser oder die verschiedenen zu untersuchenden Verbindungen i.p.
30 Minuten danach verabreicht man intraperitoneal Oxotremorin in einer Dosis von 0,5 mg/kg.
Die Mäuse werden dan beobachtet: Tremor wird je nach der Intensität von 0 bis 3 bewertet, und die Akinesie wird alle 10 Minuten über einen Zeitraum von 30 Minuten auf Vorliegen oder Fehlen bestimmt.
Außerdem beobachtet man 2 Stunden lang das Erscheinen peripherer Symptome (Tränen, Darmentleerung). Die Rektaltemperatur wird alle 30 Minuten über eine Zeitraum von 2 Stunden nach der Verabreichung des Oxotremorins gemessen.
Die eine antidepressive Aktivität besitzenden Produkte wirken der durch Oxotremorin induzierten Hypothermie entgegen.
Für jede Dosis der Verbindung berechnet man die prozentuale Hemmung der Hypothermie.

[11] = Tabelle Ib, read-out: Erste wirksame Dosis Apomorphin 16 mg.kg^-1 s.c.
[12] = Tabelle Ib, read-out: Erste wirksame Dosis Reserpin

SMILES | Tremor [1] | ruckartige Kopfbewegungen [1] | minimal effective dose ([2]; Tabelle Ib, read-out: Erste wirksame Dosis Yohimbin) | minimal effective dose [3, 11] | Motilität ([4]; Tabelle Ib) | minimal effective dose ([4]; Tabelle Ib) | % Antagonismus [5] | Dauer der Unbeweglichkeit ([5]; 30 min before test) | minimal effective dose [6, 12] | minimal effective dose ([7]; Tabelle Ib) | minimal effective dose [8] | Pfotenlecken [9] | Sprünge [9] | minimal effective dose ([2]; read-out: Erste wirksame Dosis Yohimbin, i.p., Tabelle Ib) | minimal effective dose ([3]; read-out: Erste wirksame Dosis Apomorphin 16 mg.kg^-1 s.c., i.p., Tabelle Ib) | minimal effective dose [4] | minimal effective dose [10] | minimal effective dose ([6]; read-out: Erste wirksame Dosis Reserpin, i.p., Tabelle Ib) | minimal effective dose [7] | minimal effective dose ([10]; Tabelle Ib)
CNCCCN1c2ccccc2CCc2ccccc21 [DESIPRAMIN, reference compound] | 0,5 ± 0,2 | 3,8 ± 0,4 p < 0,01 | 0.5 mg/kg | 2 mg/kg | ↘ | 4 mg/kg | 48% | 105 ± 16 p < 0,001 Sekunden | 0.25 mg/kg | 1 to 4 mg/kg | > 16 mg/kg | 8,2 ± 0,5 p < 0,001 Sekunden | 85 ± 7 Sekunden | – | – | – | – | – | – | –
CCOc1ccccc1OCC1CNCCO1 (stereo not drawn) [VILOXAZIN, reference compound] | – | – | – | – | ↘ | – | – | – | – | – | > 32 mg/kg | – | – | 8 mg/kg | 8 mg/kg | 16 mg/kg | 4 mg/kg | 4 mg/kg | 8 mg/kg | –
CN1CCN2c3ccccc3Cc3ccccc3C2C1 (stereo not drawn) [MIANSERIN, reference compound] | – | – | – | 64 mg/kg | ↘ | 32 mg/kg | – | – | > 32 mg/kg | – | 64 mg/kg | – | – | – | – | – | – | – | – | 32 mg/kg
